# Experiments:
# C. acremonium expandase = biological target: T1, C. acremonium expandase (Hapsidospora chrysogena, UniProt P11935); details: cited from earlier work; for substrate for expandase activity: crude extracts (Kohsaka et al. 1976; Demain et al.); for ring expansion: partially purified enzyme (Kupka et al. 1983)
# T1 sequence (P11935 1-332): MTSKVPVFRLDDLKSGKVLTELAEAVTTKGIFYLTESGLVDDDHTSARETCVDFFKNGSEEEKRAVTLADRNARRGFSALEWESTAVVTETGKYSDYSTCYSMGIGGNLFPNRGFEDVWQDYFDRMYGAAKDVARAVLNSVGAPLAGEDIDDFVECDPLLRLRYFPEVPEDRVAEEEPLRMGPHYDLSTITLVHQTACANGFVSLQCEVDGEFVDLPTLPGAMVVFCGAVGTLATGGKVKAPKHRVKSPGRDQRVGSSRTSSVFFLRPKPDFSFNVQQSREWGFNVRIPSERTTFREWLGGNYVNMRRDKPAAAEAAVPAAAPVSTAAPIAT
# [1] = biological target: T2, S. clavuligerus expandase (Streptomyces clavuligerus, UniProt P18548); details: literature reports (Jensen 1982; Dotzlaf 1989; Yeh 1994; Maeda 1995); cited from earlier work
# T2 construct: The cells were resuspended in the same buffer and disrupted by four 25-sec. sonication treatments; endogenous in cells; host or cells: S. clavuligerus mutant NP1, crude cell-free extract
# T2 sequence (P18548 whole entry): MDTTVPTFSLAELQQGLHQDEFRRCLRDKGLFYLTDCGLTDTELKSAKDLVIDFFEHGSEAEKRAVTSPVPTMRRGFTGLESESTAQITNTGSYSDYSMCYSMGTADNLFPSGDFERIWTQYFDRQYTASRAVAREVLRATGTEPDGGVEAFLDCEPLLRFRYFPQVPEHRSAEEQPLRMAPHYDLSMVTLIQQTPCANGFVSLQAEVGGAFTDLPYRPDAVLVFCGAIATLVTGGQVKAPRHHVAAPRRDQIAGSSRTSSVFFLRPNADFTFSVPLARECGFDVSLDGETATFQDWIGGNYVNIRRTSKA
# [2] = biological target: T2, S. clavuligerus expandase; test: Penicillin ring expansion by cell-free S. clavuligerus expandase extracts, paper disc-agar diffusion bioassay; type: biochemical; details: 4 mg/ml extract protein; for Ring expansion, size of zones of inhibition: 2 mg/ml substrate (penicillin mX and octanoyl-6-APA 3 mg/ml), 2 hours; for Inhibition Zone Diameter: 2 hours of reaction, 250 μl in bioassay (E. coli ESS, penicillinase)
# Experimental: Preparation of Cell-free Extracts: Fermentation broths were centrifuged at 8,000×g and 4° C. for 10 min. Pellets were washed twice using 50 mM Tris-HCI supplemented with 0.1 mM dithiothreitol (DTT). The cells were resuspended in the same buffer and disrupted by four 25-sec. sonication treatments (power setting 5 and duty cycle 50%), in an ice-water bath using a Branson 350 sonifier (Branson Sonic Power Co., Danbury, Conn.). Cell debris was removed by centrifugation (14,000×g, 30 min., 4° C.). The resulting extracts containing 8-10 mg protein/ml were placed on ice and utilized immediately. Protein concentrations were measured using the Bio-Rad protein assay (Bio-Rad, Hercules, Calif.). Bovine serum albumin was used as standard.
# Ring Expansion Reaction: We defined ring expansion reaction conditions as modifications of the standard reaction mixture for expandase reactions described by Maeda et al. (Maeda et al., Enzyme Microb. Technol. 17:231-34, 1995) except that penicillin G was used a substrate instead of penicillin N. Additions were made following the order established by Shen et al. (Shen et al., Enzyme Microb. Technol. 6:402-404, 1984. Reaction mixtures were incubated in test tubes (cell-free extract) or 250 ml baffled flasks (resting cells) at 220 rpm, 30° C. Reactions containing the protein extract were stopped at various times (see Table 1 and Figure Legends) by mixing 0.5 ml of assay solution with 0.5 ml of methanol. In the case of resting cells, samples were centrifuged to remove cells and supernatants were transferred to new tubes. Expandase activity was detected by paper disc-agar diffusion bioassay.
# Detection of Expandase Activity: As mentioned above, expandase activity was detected by assaying production of a growth-inhibitory zone in a paper disc-agar diffusion bioassay. Paper discs were saturated with 200 μl of the reaction mixture (cell-free extracts or supernatant (resting cells) as follows. Two discs were superimposed and four 50 μl samples were applied. After each application, the discs were allowed to dry for 20 min at 37° C. under a laminar hood and, finally, they were placed on LB (1% tryptone, 0.5% NaCl, 0.5% yeast extract, 0.1% glucose) 0.8% agar medium seeded with E. coli ESS (a β-lactam supersensitive mutant), and the plates were incubated overnight at 37° C. The formation of DAOG and/or other cephalosporin(s) was determined by including 50,000 IU/ml of penicillinase (Difco Bacto penase concentrate, Difco Laboratories, Detroit, Mich.) in the assay plates. This penicillinase is a narrow spectrum β-lactamase that attacks penicillins but not cephalosporins. The diameters of zones of growth inhibition were measured and quantified with a calibration curve using DAOG as standard.
# Ring Expansion of Other Penicillins by Cell-free Extracts: We tested our reaction conditions for their ability to support ring expansion on other penicillin substrates and found detectable expansion with each of the 15 substrates that we tested. […] The reactions contained 4 mg/ml extract (protein concentration), 50 mM Tris-HCl pH 7.4, 1.8 mM FeSO4, 1.28 mM α-ketoglutarate, 8 mM MgSO4, 8 mM KCl, 4 mM ascorbic acid, 14 mM DTT, and 2 mg/ml substrate (except for penicillin mX and octanoyl-6-APA, which were used at 3 mg/ml). Samples were centrifuged at 12K rpm for 5 minutes after 2 hours of reaction. 250 μl of reaction mixture was used in each bioassay.
# [3] = test system: S. clavuligerus or C. acremonium expandase enzymes; details: cited from earlier work; for ability to expand: in vitro (Bowers 1984; Baldwin 1987; Shibata 1996); for in vitro substrate: suggested by Baldwin et al. 1987, subsequent work failed to confirm
# [4] = biological target: T3, expandase from N. lactamdurans (Amycolatopsis lactamdurans, UniProt Q03047); test: Ring expansion by cell-free extracts of S. lividans containing pUL702-202a (Example 7); type: biochemical; details: S. lividans pUL702-202a cell-free extract 6 mg/ml protein, substrate 5.6 mM
# T3 construct: made in house; host or cells: S. lividans 1326 transformed with pUL702-202a, crude cell-free extract
# T3 sequence (Q03047 whole entry): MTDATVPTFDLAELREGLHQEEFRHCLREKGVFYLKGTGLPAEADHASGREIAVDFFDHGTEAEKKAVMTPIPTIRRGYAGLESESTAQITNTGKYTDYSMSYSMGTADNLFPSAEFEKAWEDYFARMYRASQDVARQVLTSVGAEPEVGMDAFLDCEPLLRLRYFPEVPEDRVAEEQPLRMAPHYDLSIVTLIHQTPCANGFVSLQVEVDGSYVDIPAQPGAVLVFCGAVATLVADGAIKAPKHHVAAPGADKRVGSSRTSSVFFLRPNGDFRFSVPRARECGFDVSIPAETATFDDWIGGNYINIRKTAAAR
# Experimental: (§1) Microorganism, Medium and Culture Conditions: S. lividans 1326 was used in all experiments. Cultures were grown in 250 ml baffled flasks containing 40 ml of MST medium. Each flask was inoculated with 50 μl of a spore suspension (prepared and stored at −80° C. in 20% glycerol) and incubated at 30° C., 250 rpm, for 48 h.
# (§2) Plasmids: The plasmid pUL702-202a was a gift from J. F. Martin (University of León, Spain). This vector harboured a 4.3 Kb BglII fragment containing the epimerase and expandase genes from Nocardia lactamdurans inserted at the BglII site on pIJ702. The plasmid pHJ11 was constructed by cloning a 3 Kb BglII fragment containing the expandase gene from S. clavuligerus 3585 into pIJ702 at the BglII site.
# (§3) Ring Expansion Reaction: The ring expansion mixture contained 1.8 mM FeSO4, 1.28 mM α-ketoglutarate, 6 mg/ml protein (cell-free extract), 8 mM KCl, 8 mM MgSO4, 14 mM DTT and 50 mM TrisHCl (pH 7.4) in a final volume of 2.5 ml. Substrate concentration was 5.6 mM. Additions were made following the order established by Shen et al. (Enzyme Microb. Technol. 6:402-404, 1984). Reaction mixtures were incubated in test tubes at 220 rpm, 30° C. At different times, 0.5 ml samples were taken and the reaction was stopped by adding 0.5 ml of methanol. […] Biotransformation activity was detected by paper disc-agar diffusion bioassay. […]
# [5] = biological target: T4, expandase from S. clavuligerus (Streptomyces clavuligerus, UniProt P18548); test: Ring expansion by cell-free extracts of S. lividans transformant pHJ11 (Example 7); type: biochemical; details: pHJ11 cell-free extract 6 mg/ml protein, substrate 5.6 mM, after 4 h of reaction
# T4 construct: made in house; host or cells: S. lividans 1326 transformed with pHJ11, crude cell-free extract
# T4 sequence (P18548 whole entry): as the sequence (P18548 whole entry) above
# Experimental: as §1, §2, §3
molecule,measurement,setting,value
CC1(C)S[C@@H]2[C@H](NC(=O)CCC[C@@H](N)C(=O)O)C(=O)N2[C@H]1C(=O)O [penicillin N],substrate for expandase activity,C. acremonium expandase,substrates
same,ring expansion,[1],expands the ring
"CC1(C)S[C@@H]2[C@H](NC(=O)COc3ccccc3)C(=O)N2[C@H]1C(=O)O [Penicillin V, penicillin V]","Ring expansion, size of zones of inhibition",[2],smaller zones
same,Inhibition Zone Diameter,[2]; 2 mg/ml substrate,7.5 mm
same,ring expansion,[1],not
"CC1(C)SC2C(NC(=O)Cc3cccs3)C(=O)N2C1C(=O)O (stereo not shown) [2-Thiophenylacetyl-6-APA, 2-thiophenylacetyl-6-APA]","Ring expansion, size of zones of inhibition",[2],Large zones of inhibition
same,Inhibition Zone Diameter,[2]; 2 mg/ml substrate,32 mm
"CC1(C)S[C@@H]2[C@H](NC(=O)CCCCC(=O)O)C(=O)N2[C@H]1C(=O)O [Adipyl-6-APA, adipyl-6-APA]","Ring expansion, size of zones of inhibition",[2],intermediate size zones
same,Inhibition Zone Diameter,[2]; 2 mg/ml substrate,20 mm
same,ring expansion,C. acremonium expandase,does not expand
same,ring expansion,[1],not
same,ability to expand,[3],some ability
CCCCCCCC(=O)N[C@@H]1C(=O)N2[C@@H]1SC(C)(C)[C@@H]2C(=O)O [penicillin K],ring expansion,[1],not
"CC/C=C/CC(=O)N[C@@H]1C(=O)N2[C@@H]1SC(C)(C)[C@@H]2C(=O)O [Penicillin F, penicillin F]","Ring expansion, size of zones of inhibition",[2],intermediate size zones
same,Inhibition Zone Diameter,[2]; 2 mg/ml substrate,21 mm
"CCCCCCC(=O)NC1C(=O)N2[C@@H]1SC(C)(C)[C@@H]2C(=O)O (stereo partly shown) [Heptanoyl-6-APA, heptanoyl-6-APA]","Ring expansion, size of zones of inhibition",[2],intermediate size zones
same,Inhibition Zone Diameter,[2]; 2 mg/ml substrate,16.5 mm
"CC1(C)S[C@@H]2[C@H](NC(=O)Cc3ccc(O)cc3)C(=O)N2[C@H]1C(=O)O [Penicillin X, penicillin X]","Ring expansion, size of zones of inhibition",[2],Large zones of inhibition
same,Inhibition Zone Diameter,[2]; 2 mg/ml substrate,30.5 mm
"CCCCCCCCC(=O)NC1C(=O)N2C1SC(C)(C)C2C(=O)O (stereo not shown) [Nonanoyl-6-APA, nonanoyl-6-APA]","Ring expansion, size of zones of inhibition",[2],smaller zones
same,Inhibition Zone Diameter,[2]; 2 mg/ml substrate,10.5 mm
D-carboxymethylcysteinyl-6-APA,ability to expand,[3],some ability
"CC1(C)S[C@@H]2[C@H](NC(=O)[C@H](N)c3ccccc3)C(=O)N2[C@H]1C(=O)O [Ampicillin, ampicillin]","Ring expansion, size of zones of inhibition",[2],intermediate size zones
same,Inhibition Zone Diameter,[2]; 2 mg/ml substrate,17 mm
same,ring expansion,[4],expansion was only observed when penicillin G was used as substrate
same,production of cephalosporins,[5],about 1.5 μg/ml
same,ring expansion,C. acremonium expandase,does not expand
same,ring expansion,[1],not
CCCCCC(=O)N[C@@H]1C(=O)N2[C@@H]1SC(C)(C)[C@@H]2C(=O)O [penicillin dihydroF],ring expansion,[1],not
CC1(C)S[C@@H]2[C@H](NC(=O)Cc3cccc(C(=O)O)c3)C(=O)N2[C@H]1C(=O)O [m-carboxyphenylacetyl-6-APA],ring expansion,[1],not
same,in vitro substrate,[3],at very low levels
glutamyl-6-APA,in vitro substrate,[3],at very low levels
"CCCC(=O)NC1C(=O)N2C1SC(C)(C)C2C(=O)O (stereo not shown) [Butyryl-6-APA, butyryl-6-APA]","Ring expansion, size of zones of inhibition",[2],intermediate size zones
same,Inhibition Zone Diameter,[2]; 2 mg/ml substrate,17.5 mm
same,ring expansion,[1],not
"CCCCCC(=O)NC1C(=O)N2[C@@H]1SC(C)(C)[C@@H]2C(=O)O (stereo partly shown) [Hexanoyl-6-APA, hexanoyl-6-APA]","Ring expansion, size of zones of inhibition",[2],intermediate size zones
same,Inhibition Zone Diameter,[2]; 2 mg/ml substrate,19.5 mm
"CCCCCCCCCC(=O)NC1C(=O)N2C1SC(C)(C)C2C(=O)O (stereo not shown) [Decanoyl-6-APA, decanoyl-6-APA]","Ring expansion, size of zones of inhibition",[2],smaller zones
same,Inhibition Zone Diameter,[2]; 2 mg/ml substrate,7 mm
D-glutamyl-6-APA,ring expansion,[1],not
same,in vitro substrate,[3],at very low levels
"CCCCC(=O)NC1C(=O)N2[C@@H]1SC(C)(C)[C@@H]2C(=O)O (stereo partly shown) [Valeryl-6-APA, valeryl-6-APA]","Ring expansion, size of zones of inhibition",[2],intermediate size zones
same,Inhibition Zone Diameter,[2]; 2 mg/ml substrate,15 mm
CC1(C)S[C@@H]2[C@H](N)C(=O)N2[C@H]1C(=O)O [6-aminopenicillanic acid],substrate for expandase activity,C. acremonium expandase,not
"CCCCCCCC(=O)N[C@@H]1C(=O)N2[C@@H]1SC(C)(C)[C@@H]2C(=O)O [Octanoyl-6-APA, octanoyl-6-APA]","Ring expansion, size of zones of inhibition",[2],intermediate size zones
same,Inhibition Zone Diameter,[2]; 3 mg/ml substrate,16 mm
